Measurements published in US20160297763A1, “Heteroaryl hydroxamic acid derivatives and their use in the treatment, amelioration or prevention of a viral disease” (priority 2011, published 2016).

Biological target: PB2 cap binding domain (CBD) (Influenza A virus, UniProt Q9Q0V1)
Test: biochemical
Design: species or system avian H5N1 influenza virus

PB2 cap binding domain (CBD), sequence (Q9Q0V1 318-483 limits assumed): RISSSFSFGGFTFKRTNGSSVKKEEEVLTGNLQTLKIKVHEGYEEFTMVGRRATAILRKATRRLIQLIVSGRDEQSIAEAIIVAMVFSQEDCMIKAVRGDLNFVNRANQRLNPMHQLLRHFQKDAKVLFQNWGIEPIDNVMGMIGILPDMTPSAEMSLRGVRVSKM

SMILES	Kd
Cc1c(-c2ccccc2)sc2nc(NCCN(C)C)[nH]c(=O)c12 [SAV-7583]	68 µM
Cc1c(-c2cnn(C)c2)sc2nc(N)[nH]c(=O)c12 [SAV-7603]	42 µM

System: not given
Test: not given

SMILES	melting point
O=C(c1cc(N2CCCCC2)ccn1)N(O)CCCc1ccccc1	125 to 130 °C
Cl.O=C(NO)c1cc(NS(=O)(=O)Cc2cccc3cccnc23)ccn1	220 to 228 °C
CCONC(=O)c1cc(NCC2CCN(Cc3ccccc3)CC2)ccn1.Cl.Cl (hydrate or solvate)	125 to 130 °C
O=C(c1cc2ccccc2cn1)N(O)CCc1ccccc1	90 to 95 °C
Cl.O=C(NO)c1cc(NS(=O)(=O)Cc2cccc(C(F)(F)F)c2)ccn1	201 to 204 °C
Cc1c(-c2ccccc2)sc2nc(N3CCOCC3)[nH]c(=O)c12	300 to 320 °C
Cl.O=C(NO)c1cc(NS(=O)(=O)C(c2ccccc2)c2ccccc2)ccn1	162 to 168 °C
O=C(c1cc(C2=CCCCC2)ccn1)N(O)Cc1ccccc1	118 to 122 °C
Cl.O=C(c1cc(NS(=O)(=O)Cc2cccc(C(F)(F)F)c2)ccn1)N(O)Cc1ccccc1	178 to 182 °C
Cc1c(-c2ccccc2)sc2nc(NCCNC(=O)CCN3CCN(C)CC3)[nH]c(=O)c12	235 to 245 °C
Cc1c(-c2ccc(Cl)cc2F)sc2nc(N)[nH]c(=O)c12	320 to 340 °C
Cl.O=C(NO)c1cc(NS(=O)(=O)Cc2ccccc2Cl)ccn1	215 to 220 °C
CC(C)(C)OC(=O)N1CCC=C(c2ccnc(C(=O)N(O)Cc3ccccc3)c2)C1	128 to 134 °C
O=C(c1ccc(N2CCCC2)cn1)N(O)Cc1ccccc1	115 to 120 °C
O=C(NOCc1ccccc1)c1cc(N2CCCCC2)ccn1	135 to 140 °C
Cc1c(-c2cc(C#N)ccc2Cl)sc2nc(N)[nH]c(=O)c12	> 350 °C

SMILES	melting point
CCONC(=O)c1cc(N)ccn1.Cl (hydrate or solvate)	114 to 120 °C
Cc1c(-c2ccc(F)cc2F)sc2nc(N)[nH]c(=O)c12	330 to 350 °C
CN(C)S(=O)(=O)c1cccc(-c2ccnc(C(=O)N(O)Cc3ccccc3)c2)c1	110 to 115 °C
Cc1c(-c2cc(CN(C)C)ccc2F)sc2nc(N)[nH]c(=O)c12	230 to 250 °C
Cc1c(-c2ccc(F)c(C(F)(F)F)c2)sc2nc(N)[nH]c(=O)c12	310 to 330 °C
Nc1nc2sc(-c3ccccc3)cc2c(=O)[nH]1	> 360 °C
Cl.O=C(c1cc(NS(=O)(=O)Cc2cc(Cl)cc(Cl)c2)ccn1)N(O)Cc1ccccc1	189 to 194 °C
CCONC(=O)c1cc(N2CCOCC2)ccn1.Cl (hydrate or solvate)	200 to 202 °C
Cl.O=C(c1cc(N2CCOCC2)ccn1)N(O)Cc1ccccc1	185 to 190 °C
O=C(NO)c1cc(N2CCOCC2)ccn1	215 to 220 °C (dec.)
Cl.O=C(NO)c1cc(N2CCCCC2)ccn1 (hydrate or solvate)	200 to 202 °C
Cc1cccc(C(=O)NOCc2ccccc2)n1	75 to 80 °C
O=C(c1cc2ccccc2cn1)N(Cc1ccccc1)OCc1ccccc1	70 to 75 °C
Cc1c(C2=CCNCC2)sc2nc(N)[nH]c(=O)c12	290 to 310 °C
O=C(c1ccc(N2CCCCC2)cn1)N(O)Cc1ccccc1	110 to 115 °C
